Measured values as given in patent US20220008425A1, “Pharmaceutical Composition for Treating B-Cell Lymphoma” (FUNDAN UNIVERSITY SHANGHAI CANER CENTER, priority 2018, published 2022).
“And” between values parts separate entries of the source, which are not always exact repeats. Identical values can stand only once. “Also recorded” adds a separate entry of the source.

Columns and labels:
[1] = system: CD20 and mCRPs (CD46, CD55, CD59) in RCHO-resistant NU-DUL-1 cells; experiment: FACS analysis of membrane expression of CD46, CD55, CD59 and CD20; type: cell-based, human
Method: (§1) After being washed with PBS, cells were incubated with fluorescein-conjugated antibody for 30 minutes, followed by washing and resuspension of cells in PBS. Flow cytometry analysis was performed on a cytomics FC500 MPL instrument (Beckman Coulter, Inc., Brea, Calif.) and FlowJo software (Ashland, Inc., OR) was used for analysis. Cells were then sorted according to their relative fluorescence intensity by using a MoFlo XDP sorter (Beckman Coulter Inc., Brea, Calif.).

[2] = system: CD20 and mCRPs (CD46, CD55, CD59) in RCHO-resistant LY8 cells; experiment: as above; type: cell-based, human
Method: as §1

LY8-RCHO cells [3] = details: 48 hours; for cytotoxicity (induction of cell death), inhibitor used alone: inhibitor alone at increasing concentrations; for reversal of resistance to CHO (cytotoxicity of CHO), inhibitor co-treated with CHO: inhibitor at increasing concentrations with CHO
Method: (§2) Further, we constructed LY8 and NU-DUL-1 cells resistant to chemotherapeutic drugs. Briefly, LY8-ORI and NU-DUL-1-ORI cells were treated with doxorubicin (Selleck Chemicals, Houston, Tex.) and vincristine (Selleck Chemicals, Houston, Tex.) at a clinical ratio of 50:1.4 by increasing the concentration. […] These cells were then treated with 2 μg/mL of 4-hydroperoxycyclophosphamide (4-HC) (Santa Cruz Biotechnology, Inc., Santa Cruz, Calif.) every 21 days for 3 cycles. The obtained CHO-resistant cells are referred to as LY8-CHO and NU-DUL-1-CHO, respectively. CHO-resistant cells were treated with doxorubicin, vincristine, and 4-HC every 22 days to maintain drug tolerance to CHO. […] To maintain RCHO resistance, LY8-RCHO cells and NU-DUL-1-RCHO cells were treated with 32 μg/mL of rituximab containing 20% (v/v) of NHS every 22 days, followed by treatment with doxorubicin, vincristine, and 4-HC. After 48 hours of treatment with doxorubicin, vincristine and 4-HC, drug resistance to CHO and RCHO was determined by a series of CCK-8 assays.
(§3) Cells were seeded in a 96-well plate at a density of 1×10^4/100 μL/well. Cells were pretreated with IPI-145, abemaciclib, AZD4547, PF-573228, R788, or saracatinib at increasing concentrations with or without CHO for 48 hours prior to performing CytoTox-Glo™ cytotoxicity assay. We performed cytotoxicity assay by using a CytoTox-Glo™ cytotoxicity assay kit (Promega Inc., Madison, Wis.) according to their instructions. Briefly, 50 μL of CytoTox-Glo™ cytotoxicity assay reagent was added to all wells, mixed by orbital shaking, and then incubated for 15 minutes at room temperature. Luminescence of experimental dead cells was detected with a Synergy HT microplate reader (BioTek, Biotek Winooski, Minn.), wherein 50 μL of lysate was added to all wells, mixed and incubated for 15 minutes at room temperature prior to detection of total luminescence. Cytotoxicity was calculated according to the following formula: Cytotoxicity (%)=Experimental dead cell luminescence/Total luminescence×100%.

NU-DUL-1-RCHO cells = details: 48 hours; for cytotoxicity (induction of cell death), inhibitor used alone: inhibitor alone at increasing concentrations; for reversal of resistance to CHO (cytotoxicity of CHO), inhibitor co-treated with CHO: inhibitor at increasing concentrations with CHO
Method: as §2, §3

LY8-RCHO cells [4] = experiment: Aldefluor analysis (ALDH1+ cells); type: cell-based, human
Method: ALDH1 is a selectable marker for a variety of normal and cancer stem cells, including hematopoietic stem cells. Therefore, we assessed the number of cancer stem cells in hematopoietic malignancies by detecting ALDH1 positive cells. As previously described, we used an ALDEFLUOR™ kit (StemCell Technologies, Vancouver, BC, CA) to detect populations with high ALDH1 activity. Briefly, 1×10^6 cells were suspended in 1 mL of assay buffer containing 1 μM of BAAA, a substrate of […]. Suspended cells were then equally divided into two samples, one as a negative control and the other as a test sample. To form the negative control, […] of DEAB, a specific ALDH inhibitor, was added to one equally-divided sample. Cells were then incubated at 37° C. for 30 minutes prior to flow cytometry analysis.

LY8-RCHO cells [5] = experiment: EdU cell proliferation assay; type: cell-based, human; details: 1 μM
Method: RCHO-resistant DLBCL cells were pretreated with duvelisib, abemaciclib, or AZD4547 at a concentration of 1 μM for 48 or 120 hours prior to EdU assay. For 120 hours of the study, the medium was replaced with a fresh medium containing 1 μM of inhibitor at 48 hours. EdU cell proliferation assay was performed by using a cell-light EdU Apollo643 in vitro flow cytometry kit (RiboBio Inc., Guangzhou, China) according to its instructions. Next, we assayed EdU staining positive cells on a Cytomics FC500 MPL flow cytometer (Beckman Coulter, Brea, Calif.).

[6] = system: AKT phosphorylation, SOX2, CDK6 and CSC-associated molecules in LY8-RCHO cells; experiment: Immunoblot analysis; type: cell-based, human
LY8-RCHO-Luc cells = experiment: Transplantation model, bioluminescence tumor growth and survival; type: in vivo; details: SCID mice bearing LY8-RCHO-Luc cells
Source text: Construction of a transplantation model: we transduced LY8-RCHO cells and NU-DUL-1-RCHO cells with lentiviruses overexpressing the firefly luciferase gene to generate stable cells expressing firefly luciferase, referred to as LY8-RCHO-Luc cells and NU-DUL-1-RCHO-Luc cells, respectively. 8-week-old female SCID mice were purchased from SLAC (Shanghai laboratory animal center). The LY8-RCHO-Luc cells and NU-DUL-1-RCHO-Luc cells were resuspended in PBS prior to intraperitoneal injection of 1.5×10^7 cells per mouse. After intraperitoneal injection of the LY8-RCHO-Luc cells, mice were randomized into 6 groups (7 mice in every group) and given saline, R-CHOP, duvelisib, abemaciclib, R-CHOP+duvelisib, and R-CHOP+abemaciclib, respectively. Mice inoculated with the NU-DUL-1-RCHO-Luc cells were randomly divided into 6 groups (7 mice in every group), and were given saline, R-CHOP, duvelisib, AZD4547, R-CHOP+duvelisib, and R-CHOP+AZD4547, respectively. The drug dosing method based on one course of clinical use is shown in Table 1; the R-CHOP regimen was clinically used to treat DLBCL, while duvelisib, abemaciclib, and AZD4547 were tested in clinical trials (associated NCT numbers are NCT02576275, NCT01739309, and […], respectively). Tumor growth was monitored by bioluminescence at day 50 and day 90 after inoculation. For in vivo luminescence imaging, D-luciferin (Promega, Madison, Wis.) was intraperitoneally injected into mice (150 mg/kg). After 10 minutes, the mice were anesthetized by intraperitoneal injection of pentobarbital (50 mg/kg) and then their bioluminescence intensity was examined by using an In Vivo MS FX PRO system (Bruker Corporation, Billerica, Mass.). Luminescence images were captured with an exposure time of 30 seconds and the signal intensity of the tumor was measured by using Bruker MI software. The survival time of each mouse was recorded. Surviving mice were euthanized and dissected 120 days after inoculation and no intraperitoneal tumors were found. Tumor tissue was collected from moribund mice and fixed with 4% formalin. All animal experiments were performed in strict accordance with the experiment protocol approved by the animal ethics committee of Shanghai school of medicine of Fudan university.

LY8-RCHO cells [7] = experiment: CDC assay (rituximab-mediated complement-dependent cytotoxicity); type: cell-based, human; details: pre-treated with inhibitor 24 hours, then rituximab and 20% NHS 2 hours
Method: We constructed LY8 cells and NU-DUL-1 cells that are resistant to rituximab-mediated complement-dependent cytotoxicity (CDC). Briefly, original LY8 (LY8-ORI) cells and original NU-DUL-1 (NU-DUL-1-ORI) cells were treated with rituximab containing 20% (v/v) of NHS (Roche, Basel, Switzerland) with a concentration of gradually increasing from 4 μg/mL to 32 μg/mL to construct drug-resistant cells. […] Cytolysis induced by CDC was evaluated by detection of positive cells stained with propidium iodide (PI) through fluorescence activated cell sorting (FACS).

## NC1(c2ccc(-c3nc4ccn5c(=O)[nH]nc5c4cc3-c3ccccc3)cc2)CCC1 [MK-2206]
[1]
  membrane expression of CD20: significantly reduced
  membrane expression of the other three mCRPs (CD46, CD55, CD59): the other three mCRPs did not
[2]
  membrane expression of CD20: significantly reduced
  membrane expression of the other three mCRPs (CD46, CD55, CD59): the other three mCRPs did not

## CS(=O)(=O)c1cccc(CNc2nc(Nc3ccc4c(c3)CCC(=O)N4)ncc2C(F)(F)F)c1 [PF-573228]
LY8-RCHO cells [3]
  cytotoxicity (induction of cell death), inhibitor used alone: negligible effect on direct induction of cell death
  reversal of resistance to CHO (cytotoxicity of CHO), inhibitor co-treated with CHO: significantly reversed resistance of RCHO-resistant cells to CHO

## CN1CCN(CCOc2cc(OC3CCOCC3)c3c(Nc4c(Cl)ccc5c4OCO5)ncnc3c2)CC1 [saracatinib]
LY8-RCHO cells [3]
  cytotoxicity (induction of cell death), inhibitor used alone: negligible effect on direct induction of cell death
  reversal of resistance to CHO (cytotoxicity of CHO), inhibitor co-treated with CHO: significantly reversed resistance of RCHO-resistant cells to CHO
NU-DUL-1-RCHO cells
  cytotoxicity (induction of cell death), inhibitor used alone: negligible effect on direct induction of cell death
  reversal of resistance to CHO (cytotoxicity of CHO), inhibitor co-treated with CHO: significantly reversed resistance of RCHO-resistant cells to CHO

## CCN1CCN(Cc2ccc(Nc3ncc(F)c(-c4cc(F)c5nc(C)n(C(C)C)c5c4)n3)nc2)CC1 [abemaciclib]
LY8-RCHO cells [4]
  proportion of ALDH1+ cells (CSCs): had no effect on ALDH1+ subpopulations in LY8-RCHO cells
LY8-RCHO cells [3]
  cytotoxicity (induction of cell death), inhibitor used alone: negligible effect on induction of cell death; also recorded: only negligible cytotoxicity on drug-resistant cells
  reversal of resistance to CHO (cytotoxicity of CHO), inhibitor co-treated with CHO: restored sensitivity of RCHO-resistant cells to CHO; also recorded: significantly enhanced cytotoxicity of CHO
LY8-RCHO cells [5]; 48 hours
  cell proliferation (EdU incorporation): prevented growth of LY8-RCHO cells at both 48 hours and 120 hours
LY8-RCHO cells [5]; 120 hours
  cell proliferation (EdU incorporation): prevented growth of LY8-RCHO cells at both 48 hours and 120 hours
[6]
  levels of CSC-associated molecules (OCT4, NANOG, KLF4, c-MYC, CD34, CD133): had no effect on its levels but resulted in a reduction in C-MYC
LY8-RCHO-Luc cells; inhibitor combined with R-CHOP, 7 mice per group
  day of death of the two mice that died: 62 days and 78 days
LY8-RCHO-Luc cells; inhibitor combined with R-CHOP, dosing per Table 1
  tumor growth (total photon flux): significantly inhibited tumor growth
LY8-RCHO-Luc cells; inhibitor combined with R-CHOP, experiment ended at day 120
  survival: prolonged the survival rate compared with R-CHOP or an inhibitor alone
LY8-RCHO-Luc cells; regimen or inhibitor used alone, vs saline, dosing per Table 1
  survival: neither duvelisib nor abemaciclib alone inhibited tumor growth or prolonged the survival rate
LY8-RCHO-Luc cells; regimen or inhibitor used alone, vs saline, dosing per Table 1, day 50 and 90
  tumor growth (total photon flux): neither duvelisib nor abemaciclib alone inhibited tumor growth or prolonged the survival rate
LY8-RCHO cells [7]
  effect on resistance to R-mediated CDC: failed to reverse resistance to R-mediated CDC

## COc1cc(Nc2ncc(F)c(Nc3ccc4c(c3)N(COP(=O)(O)O)C(=O)C(C)(C)O4)n2)cc(OC)c1OC [R788]
LY8-RCHO cells [3]
  cytotoxicity (induction of cell death), inhibitor used alone: negligible effect on direct induction of cell death
  reversal of resistance to CHO (cytotoxicity of CHO), inhibitor co-treated with CHO: significantly reversed the resistance of RCHO-resistant cells to CHO
NU-DUL-1-RCHO cells
  cytotoxicity (induction of cell death), inhibitor used alone: negligible effect on direct induction of cell death
  reversal of resistance to CHO (cytotoxicity of CHO), inhibitor co-treated with CHO: significantly reversed the resistance of RCHO-resistant cells to CHO
